# Test results taken from ChEMBL document CHEMBL1201862, “PubChem BioAssay data set” (2004).
# Activity calls are given as the source filed them.
# Assays:
# [1] = target: T1, Oxysterols receptor LXR-beta (Homo sapiens, UniProt P55055); format: functional, cell-based;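 note: agonist activity at LXR measured by a cell-based luminescence readout across a dose range, run as a counterscreen for daf-12 agonists; HEK293 cells with Gal4-LXR fusion and GAL4-driven luciferase reporter; potency for activation of Gal4-LXR reporter so compounds are agonists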
# T1 sequence (P55055 whole entry): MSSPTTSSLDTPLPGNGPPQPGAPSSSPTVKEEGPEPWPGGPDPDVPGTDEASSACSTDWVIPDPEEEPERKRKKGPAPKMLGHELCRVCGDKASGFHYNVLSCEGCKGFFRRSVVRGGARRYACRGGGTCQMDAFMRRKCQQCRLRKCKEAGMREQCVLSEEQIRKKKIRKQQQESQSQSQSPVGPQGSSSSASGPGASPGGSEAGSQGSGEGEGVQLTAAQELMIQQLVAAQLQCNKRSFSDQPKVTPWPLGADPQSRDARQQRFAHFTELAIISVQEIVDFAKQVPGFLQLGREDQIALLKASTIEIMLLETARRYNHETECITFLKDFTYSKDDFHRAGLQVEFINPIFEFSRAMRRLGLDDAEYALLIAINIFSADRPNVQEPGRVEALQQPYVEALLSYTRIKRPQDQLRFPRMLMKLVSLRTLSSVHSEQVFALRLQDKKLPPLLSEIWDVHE
# [2] = target: T2, DNA repair and recombination protein RAD54-like (Homo sapiens, UniProt Q92698); assay: inhibitors of human RAD54 branch migration, confirmation, biochemical, fluorescence, cherry-picked samples, dose series (AID 651657); format: functional
# T2 sequence (Q92698 whole entry): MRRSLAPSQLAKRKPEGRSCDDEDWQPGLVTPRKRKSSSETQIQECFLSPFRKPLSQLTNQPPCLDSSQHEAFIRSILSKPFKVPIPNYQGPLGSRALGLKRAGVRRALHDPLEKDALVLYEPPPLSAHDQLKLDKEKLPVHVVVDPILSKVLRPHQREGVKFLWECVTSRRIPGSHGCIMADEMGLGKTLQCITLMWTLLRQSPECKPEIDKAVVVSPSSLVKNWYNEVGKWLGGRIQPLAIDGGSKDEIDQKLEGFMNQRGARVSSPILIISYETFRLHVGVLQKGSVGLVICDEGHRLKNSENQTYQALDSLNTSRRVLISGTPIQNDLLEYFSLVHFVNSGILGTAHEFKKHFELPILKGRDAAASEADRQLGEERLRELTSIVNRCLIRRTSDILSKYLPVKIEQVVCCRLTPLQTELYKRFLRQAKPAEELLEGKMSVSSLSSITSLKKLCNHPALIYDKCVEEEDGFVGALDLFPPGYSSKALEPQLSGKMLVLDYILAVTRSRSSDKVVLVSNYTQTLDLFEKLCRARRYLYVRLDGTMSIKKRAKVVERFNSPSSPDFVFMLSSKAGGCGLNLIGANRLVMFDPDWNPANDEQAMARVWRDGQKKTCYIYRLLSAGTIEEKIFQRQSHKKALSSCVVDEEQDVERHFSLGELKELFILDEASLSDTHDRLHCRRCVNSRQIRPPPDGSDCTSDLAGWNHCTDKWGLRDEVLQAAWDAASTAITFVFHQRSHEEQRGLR
# [3] = target: T3, DNA repair protein RAD52 homolog (Homo sapiens, UniProt P43351); format: functional, biochemical
# T3 sequence (P43351 whole entry): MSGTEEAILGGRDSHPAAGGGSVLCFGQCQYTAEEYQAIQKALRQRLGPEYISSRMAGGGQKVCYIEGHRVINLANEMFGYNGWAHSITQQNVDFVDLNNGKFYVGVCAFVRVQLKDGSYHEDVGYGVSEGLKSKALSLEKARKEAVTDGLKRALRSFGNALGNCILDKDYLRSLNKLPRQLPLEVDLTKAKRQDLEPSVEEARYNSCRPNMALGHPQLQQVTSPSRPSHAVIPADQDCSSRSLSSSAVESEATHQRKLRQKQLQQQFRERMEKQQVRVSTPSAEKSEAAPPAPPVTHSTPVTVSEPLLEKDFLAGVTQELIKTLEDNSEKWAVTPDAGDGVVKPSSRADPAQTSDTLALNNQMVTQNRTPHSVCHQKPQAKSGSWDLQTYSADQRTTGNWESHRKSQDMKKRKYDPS
# [4] = cytotoxicity in OVCAR8 ovarian cancer cells, dose response, PAX8 project, cell-based, plate reader, dry powder samples (AID 743197); format: functional; conditions: OVCAR-8
# Paired box protein Pax-8 = Paired box protein Pax-8 (Homo sapiens, UniProt Q06710); assay: inhibitors of PAX8-driven TPO luciferase reporter, dose response, RMG-I cells, cherry-pick (AID 687027); format: functional, cell-based;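 note: luciferase reporter driven by Pax8 target thyroperoxidase promoter measured by SteadyGlo luminescence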
# [5] = NIH:OVCAR-3 ovarian cancer cell cytotoxicity, dose response, PAX8 inhibitor project, plate reader, dry powder samples (AID 743044); format: functional, cell-based
# [6] = LGR2 antagonists, dose response, cell-based, HEK293, CRE-luciferase reporter, cherry pick, set 2 (AID 743343); format: functional;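 note: transfected cells were stimulated with diluted bursicon conditioned medium after compound addition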
# [7] = target: Luciferin 4-monooxygenase (Photinus pyralis, UniProt P08659); assay: firefly luciferase enzyme inhibitors, dose response, biochemical, luminescence (AID 1891)
# [8] = HepG2 cell cytotoxicity, dose response, cytotoxicity control, plate reader, cherry-pick, antagonist series (AID 743416); format: functional, cell-based
# [9] = cytotoxicity toward DRD oncogenic fibroblasts, dose response, cell-based, non-viral oncogenic, luminescence (AID 1934); format: functional; conditions: Homo sapiens
# [10] = Luminescence Cell-Based Dose Confirmation HTS to Identify Inhibitors of Platelet Dense Granule Release. [Related pubchem assays: 1663 (Primary HTS), 1678 (Summary of Project)]; format: functional
# BJ [11] = assay: cytotoxicity toward BJ-TERT-LT-ST fibroblasts, dose response, cell-based, RAS-independent, luminescence (AID 1935); format: functional; conditions: Homo sapiens;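 note: BJ fibroblasts immortalized with TERT plus LT and ST oncogenes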
# [12] = MC4R antagonists, dose response, counter-screen for LGR2 antagonist project, cell-based, plate reader, cherry pick (AID 743444); format: functional;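 note: transfected HEK 293 cells stimulated with alpha-MSH peptide; potency of inhibitors of the alpha-MSH evoked signal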
# BJ [13] = assay: cells; format: functional, cell-based; conditions: Homo sapiens
# BJ [14] = assay: cytotoxicity toward BJ-TERT fibroblasts, dose response, cell-based, RAS-independent, luminescence (AID 1933); format: functional; conditions: Homo sapiens
# [15] = A549 cell cytotoxicity, dose response, cytotoxicity control, plate reader, cherry-pick, antagonist series (AID 743412); format: functional, cell-based
# [16] = HEK293 cell cytotoxicity, dose response, cytotoxicity control, plate reader, cherry-picked samples (AID 743446); format: functional, cell-based
# [17] = CEM21 lymphoblast cell cytotoxicity, dose response, cytotoxicity control for viral fusion inhibitor project, CellTiter-Glo luminescence, cherry-picked (AID 652042); format: functional, cell-based;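 note: potency for signal decrease meaning cytotoxicity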
# [18] = off-target signal loss in HeLa-CEM21 co-culture – HeLa F-luc CTL cells, cherry-picked, counter-screen for HIV-1 Env fusion inhibitor project, dose response (AID 652040); format: functional, cell-based;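 note: potency for signal decrease marking cytotoxic or nonspecific inhibition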
# [19] = inhibitors of HIV Env-driven cell fusion, dose response, cherry-pick (AID 652057); format: functional, cell-based
# Cytochrome P450 2C9 = Cytochrome P450 2C9 (Homo sapiens, UniProt P11712)
# [20] = target: Cyclin-dependent kinase 5/CDK5 activator 1 (Homo sapiens, UniProt Q00535); assay: CDK5/p35 kinase inhibitors, dose response, biochemical, cherry-picked samples, set 2 (AID 504545)
# [21] = inhibitors of clade B AD8 Env fusion, dose response, cell-based, cherry-pick (AID 652062); format: functional;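 note: luciferase signal from cell-cell fusion driven by HIV-1 clade B AD8 Env; potency is for inhibitors of fusion seen as a drop in luminescence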
# [22] = ZM109 Env clade C HIV-1 fusion inhibitors, dose response, HeLa effector, CEM target cells, luciferase, cherry-pick (AID 652058); format: functional, cell-based
# Luciferin 4-monooxygenase, sequence (P08659 whole entry): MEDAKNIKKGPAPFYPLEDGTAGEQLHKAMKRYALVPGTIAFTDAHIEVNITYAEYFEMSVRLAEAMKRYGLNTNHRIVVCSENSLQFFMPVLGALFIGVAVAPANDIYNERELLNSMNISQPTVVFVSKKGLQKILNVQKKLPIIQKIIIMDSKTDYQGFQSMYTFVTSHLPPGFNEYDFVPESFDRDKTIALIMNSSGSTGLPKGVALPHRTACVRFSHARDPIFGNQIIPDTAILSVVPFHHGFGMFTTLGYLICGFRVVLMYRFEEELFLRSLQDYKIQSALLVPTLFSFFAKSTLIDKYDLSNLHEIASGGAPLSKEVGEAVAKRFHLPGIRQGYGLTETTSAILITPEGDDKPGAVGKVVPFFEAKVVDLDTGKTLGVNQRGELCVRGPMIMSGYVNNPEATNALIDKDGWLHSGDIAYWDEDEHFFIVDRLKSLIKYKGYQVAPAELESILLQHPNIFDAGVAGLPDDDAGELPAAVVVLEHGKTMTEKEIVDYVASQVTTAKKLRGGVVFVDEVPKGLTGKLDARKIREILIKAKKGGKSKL
# Cyclin-dependent kinase 5/CDK5 activator 1, sequence (Q00535 whole entry, the tested form may be a part): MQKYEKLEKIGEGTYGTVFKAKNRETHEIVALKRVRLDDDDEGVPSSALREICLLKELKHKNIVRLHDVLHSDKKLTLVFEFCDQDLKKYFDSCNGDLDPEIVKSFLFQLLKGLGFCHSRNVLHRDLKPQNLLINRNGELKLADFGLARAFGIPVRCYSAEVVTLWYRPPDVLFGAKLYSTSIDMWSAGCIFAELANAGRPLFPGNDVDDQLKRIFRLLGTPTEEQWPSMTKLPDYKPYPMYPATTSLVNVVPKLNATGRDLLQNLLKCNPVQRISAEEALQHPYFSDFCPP
# Cyclin-dependent kinase 5/CDK5 activator 1, sequence (Q15078 whole entry, further chain, the tested form may be a part): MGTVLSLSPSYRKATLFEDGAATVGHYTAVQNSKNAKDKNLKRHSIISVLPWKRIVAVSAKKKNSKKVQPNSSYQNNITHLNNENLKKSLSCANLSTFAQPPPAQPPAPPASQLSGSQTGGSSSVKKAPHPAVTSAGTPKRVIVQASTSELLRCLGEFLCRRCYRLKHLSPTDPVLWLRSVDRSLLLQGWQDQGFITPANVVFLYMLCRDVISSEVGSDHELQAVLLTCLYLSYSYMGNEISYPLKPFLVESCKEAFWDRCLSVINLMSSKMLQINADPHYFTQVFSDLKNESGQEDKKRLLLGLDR
# Paired box protein Pax-8, sequence (Q06710 whole entry): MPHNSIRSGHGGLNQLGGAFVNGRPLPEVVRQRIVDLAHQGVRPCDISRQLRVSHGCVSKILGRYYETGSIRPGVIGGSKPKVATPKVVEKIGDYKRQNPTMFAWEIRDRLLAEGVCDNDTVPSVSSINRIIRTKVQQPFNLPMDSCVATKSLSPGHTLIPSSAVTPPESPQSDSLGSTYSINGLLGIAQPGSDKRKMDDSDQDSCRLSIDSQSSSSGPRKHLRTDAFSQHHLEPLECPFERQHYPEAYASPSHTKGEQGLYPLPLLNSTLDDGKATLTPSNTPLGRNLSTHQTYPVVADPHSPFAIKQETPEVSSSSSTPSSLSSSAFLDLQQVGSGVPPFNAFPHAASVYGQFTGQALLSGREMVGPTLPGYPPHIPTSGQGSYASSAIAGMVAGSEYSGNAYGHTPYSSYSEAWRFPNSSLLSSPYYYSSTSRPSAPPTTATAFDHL
# Cytochrome P450 2C9, sequence (P11712 whole entry): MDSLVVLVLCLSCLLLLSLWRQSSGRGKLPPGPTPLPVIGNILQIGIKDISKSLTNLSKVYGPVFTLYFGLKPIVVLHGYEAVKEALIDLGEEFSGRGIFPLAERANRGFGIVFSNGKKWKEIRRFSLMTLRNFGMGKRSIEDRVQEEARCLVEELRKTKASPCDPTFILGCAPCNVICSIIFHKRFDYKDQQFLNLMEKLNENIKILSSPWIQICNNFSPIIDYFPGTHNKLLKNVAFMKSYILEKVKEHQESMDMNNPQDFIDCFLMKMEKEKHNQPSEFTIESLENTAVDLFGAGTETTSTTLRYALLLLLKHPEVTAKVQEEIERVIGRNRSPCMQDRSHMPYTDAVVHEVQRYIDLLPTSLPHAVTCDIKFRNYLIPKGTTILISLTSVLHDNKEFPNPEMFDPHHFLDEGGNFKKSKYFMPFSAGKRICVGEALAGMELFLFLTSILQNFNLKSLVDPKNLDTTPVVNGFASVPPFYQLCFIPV
smiles,measurement,setting,value
Cc1nc2sc(-c3ccccc3)nn2c(=O)c1Br,EC50,[1],> 67.5 µM (inactive)
CC(=O)Nc1cc(-c2ccc(N3CCN(C)CC3)cc2)cn2c(-c3ccc(S(C)(=O)=O)cc3)cnc12,AC50,[2],20.3 µM (active)
same,AC50,[3],4.37 µM (active)
Cc1ccc(S(=O)(=O)Nc2ccc3c(c2)C(=O)N([C@H](C)CO)C[C@H](C)[C@@H](CN(C)S(=O)(=O)c2ccc(Cl)cc2)OCCCC[C@H](C)O3)cc1,AC50,[4],> 70 µM (inactive)
same,AC50,Paired box protein Pax-8,3.2 µM (active)
same,AC50,[5],14.4 µM (active)
COc1ccc(-c2ccc(SC)nn2)cc1,AC50,[6],5.07 µM (active)
same,EC50,[7],1.1 µM (active)
same,AC50,[8],8.69 µM (active)
same,EC50,[9],6.25 µM (active)
same,EC50,[10],1.98 µM (active)
same,EC50,BJ [11],15.7 µM (active)
same,AC50,[12],6.62 µM (active)
same,EC50,BJ [13],6.55 µM (active)
same,EC50,BJ [14],6.75 µM (active)
same,AC50,[15],14.4 µM (active)
same,AC50,[16],8.72 µM (active)
CC1(C)Cc2c(ccc3ccccc23)C(=O)N1,AC50,[17],47.6 µM (active)
same,AC50,[18],14.1 µM (active)
same,AC50,[19],4.84 µM (active)
same,AC50,Cytochrome P450 2C9,inconclusive
same,AC50,[20],22.4 µM (active)
same,AC50,[21],2.95 µM (active)
same,AC50,[22],8.55 µM (active)
COc1ccc(CC(=O)Nc2cccc(-c3nnc(-c4ccc(C)cc4)o3)c2)cc1OC,AC50,[6],7.65 µM (active)
same,AC50,[8],30.3 µM (active)
same,AC50,[12],8.14 µM (active)
same,AC50,[15],33.4 µM (active)
same,AC50,[16],10.7 µM (active)
